Source: patent publication US12221444B2, “5,6,7,7a-tetrahydrocyclopenta[f]pyrido[1,2-h][1,7]naphthyridin-11(4bH)-one compounds and methods of use” (GLAXOSMITHKLINE INTELLECTUAL, priority 2017, dated 2025)

Legend:
HBs antigens (HBsAg) = assay: HepAD38 cells HBsAg ELISA; assay type: cell-based, Hepatitis B virus; details: read-out: HepAD38, HBsAg (EC50), 7 days total treatment, HBsAg ELISA of cell media
Protocol: (§1) Example 36 HepAD38 Cells—HBsAg ELISA and Cytotoxicity Assays
(§2) HepAD38 cells are maintained in collagen-coated flasks in cell culture medium (DMEM/F12 containing 10% fetal bovine serum (FBS), GlutaMax-1, penicillin/streptomycin, non-essential amino acids, Na pyruvate, 250 μg/mL geneticin, and 1 μg/mL doxycycline). Compound solutions are prepared in DMSO and compound are serially diluted for final concentrations of 4000, 1000, 250, 62.5, 15.6, 3.91, 0.977, 0.244, 0.061, and 0.015 ηM. The cells are then trypsinized and the cells are plate at 10,000 cells per well. Incubate plates are incubated at 37° C., 5% CO2 for 4 days. Media is replaced with new media with compound treatment. The plates are then incubated at 37° C., 5% CO2 for an additional 3 days for a total treatment time of 7 days. For antiviral response, HBsAg was measured using the HBsAg ELISA kit (International Immuno-diagnostics) with instructions provided. 100 uL of cell media samples was used for ELISA. The absorbance was read on the Spectramax® 384 plate reader (Molecular Devices) at 450 nm. For cell toxicity, the cells were used for CellTiter-Glo® Luminescent Cell Viability Assay reagent (Promega). The luminescence was read on Envision Multilabel Reader (Perkin Elmer). The data was analyzed compared to the DMSO control. % inhibition=(1−(unknown/high control))*100
(§3) The average % inhibition values from duplicate assay plates are then plotted in GraphPad Prism to determine one IC value: Four-parameter logistic curve with equation Y=Bottom+(Top-Bottom)/(1+10^((Log IC50−X)*HillSlope)) pIC50=[…]

HepAD38 cells = HepAD38 cells cytotoxicity assay (CellTiter-Glo Luminescent Cell Viability Assay); assay type: cell-based; details: 7 days total treatment, read-out: Cell tox (EC50, ηM)
Protocol: as §1, §2, §3

[1] = as above; assay type: cell-based; details: human, 7 days total treatment, read-out: Cell tox (EC50, ηM)
Protocol: as §1, §2, §3

| SMILES | EC50 (HBs antigens (HBsAg)) [nM] | EC50 (HepAD38 cells) [nM] | EC50 at 7 days [1] [nM] |
| --- | --- | --- | --- |
| CC(C)(C)C1Cc2cc(OCC3CC3)c(Cl)nc2-c2cc(=O)c(C(=O)O)cn21 (single isomer, unassigned; isomer 1) [Example 30-A, 6-(tert-Butyl)-2-chloro-3-(cyclopropylmethoxy)-10-oxo-6,10-dihydro-5H-pyrido[1,2-h][1,7]naphthyridine-9-carboxylic acid (isomer 1)] | < 1 | > 4000 | – |
| CC(C)C1(C)Cc2cc(OCC3CC3)c(Cl)nc2-c2cc(=O)c(C(=O)O)cn21 (single isomer, unassigned; isomer-2) [Example 27, (2-Chloro-3-(cyclopropylmethoxy)-6-isopropyl-6-methyl-10-oxo-5,10-dihydro-6H-pyrido[1,2-h][1,7]naphthyridine-9-carboxylic acid-Isomer-2] | > 100 | > 4000 | – |
| COCCCOc1cc2c(nc1C1CC1)-c1cc(=O)c(C(=O)O)cn1C(C)(C(C)C)C2 (single isomer, unassigned; isomer-2) [Example 29, 2-Cyclopropyl-6-isopropyl-3-(3-methoxypropoxy)-6-methyl-10-oxo-5,10-dihydro-6H-pyrido[1,2-h][1,7]naphthyridine-9-carboxylic acid-Isomer-2] | 10 to 100 | > 4000 | – |
| COc1nc2c(cc1OCC1CC1)C[C@H](C(C)(C)C)n1cc(C(=O)O)c(=O)cc1-2 [Example 16, (R)-6-(tert-Butyl)-3-(cyclopropylmethoxy)-2-methoxy-10-oxo-6,10-dihydro-5H-pyrido[1,2-h][1,7]naphthyridine-9-carboxylic acid] | > 100 | – | > 4000 |
| COc1nc2c(cc1OCC1CC1)C[C@@H](C(C)(C)C)n1cc(C(=O)O)c(=O)cc1-2 [Example 17, (S)-6-(tert-Butyl)-3-(cyclopropylmethoxy)-2-methoxy-10-oxo-6,10-dihydro-5H-pyrido[1,2-h][1,7]naphthyridine-9-carboxylic acid] | < 1 | – | > 4000 |
| CC(C)(C)[C@@H]1Cc2cc(OCC3CC3)c(O)nc2-c2cc(=O)c(C(=O)O)cn21 [Example 18, (S)-6-(tert-Butyl)-3-(cyclopropylmethoxy)-2-hydroxy-10-oxo-6,10-dihydro-5H-pyrido[1,2-h][1,7]naphthyridine-9-carboxylic acid] | > 100 | – | > 4000 |
| COCCCOc1cc2c(nc1OC)-c1cc(=O)c(C(=O)O)cn1[C@H](C(C)(C)C)C2 [Example 19, (S)-6-(tert-Butyl)-2-methoxy-3-(3-methoxypropoxy)-10-oxo-6,10-dihydro-5H-pyrido[1,2-h][1,7]naphthyridine-9-carboxylic acid] | < 1 | – | > 4000 |
| COCCCOc1cc2c(nc1O)-c1cc(=O)c(C(=O)O)cn1[C@H](C(C)(C)C)C2 [Example 20, (S)-6-(tert-Butyl)-2-hydroxy-3-(3-methoxypropoxy)-10-oxo-6,10-dihydro-5H-pyrido[1,2-h][1,7]naphthyridine-9-carboxylic acid] | > 100 | – | > 4000 |
| C=C(C)c1nc2c(cc1OCCCOC)C[C@@H](C(C)(C)C)n1cc(C(=O)O)c(=O)cc1-2 [Example 21, (S)-6-(tert-Butyl)-3-(3-methoxypropoxy)-10-oxo-2-(prop-1-en-2-yl)-6,10-dihydro-5H-pyrido[1,2-h][1,7]naphthyridine-9-carboxylic acid] | < 1 | – | > 4000 |
| COCCCOc1cc2c(nc1C(C)C)-c1cc(=O)c(C(=O)O)cn1[C@H](C(C)(C)C)C2 [Example 22, (S)-6-(tert-Butyl)-2-isopropyl-3-(3-methoxypropoxy)-10-oxo-6,10-dihydro-5H-pyrido[1,2-h][1,7]naphthyridine-9-carboxylic acid] | < 1 | – | > 4000 |
| COCCCOc1cc2c(nc1Cl)-c1cc(=O)c(C(=O)O)c(C)n1[C@H](C(C)(C)C)C2 [Example 23, (S)-6-(tert-Butyl)-2-chloro-3-(3-methoxypropoxy)-8-methyl-10-oxo-6,10-dihydro-5H-pyrido[1,2-h][1,7]naphthyridine-9-carboxylic acid] | > 100 | – | > 4000 |
| COCCCOc1cc2c(nc1CO)-c1cc(=O)c(C(=O)O)cn1[C@H](C(C)(C)C)C2 [Example 24, (S)-6-(tert-Butyl)-2-(hydroxymethyl)-3-(3-methoxypropoxy)-10-oxo-5,10-dihydro-6H-pyrido[1,2-h][1,7]naphthyridine-9-carboxylic acid] | 1 to 10 | – | > 4000 |
| COCCCOc1cc2c(nc1C1CC1)-c1c(O)c(=O)c(C(=O)O)cn1[C@H](C(C)(C)C)C2 [Example 25, (S)-6-(tert-Butyl)-2-cyclopropyl-11-hydroxy-3-(3-methoxypropoxy)-10-oxo-5,10-dihydro-6H-pyrido[1,2-h][1,7]naphthyridine-9-carboxylic acid] | < 1 | – | > 4000 |
| O=C(O)c1cn2c(cc1=O)-c1nc(Cl)c(OCC3CC3)cc1CC21CCC1 [Example 31, 2′-Chloro-3′-(cyclopropylmethoxy)-10′-oxo-5′,10′-dihydrospiro[cyclobutane-1,6′-pyrido[1,2-h][1,7]naphthyridine]-9′-carboxylic acid] | 1 to 10 | – | > 4000 |
| COc1cc2c(nc1OC)-c1cc(=O)c(C(=O)O)cn1C1(CCC1)C2 [Example 32, 2′,3′-Dimethoxy-10′-oxo-5′,10′-dihydrospiro[cyclobutane-1,6′-pyrido[1,2-h][1,7]naphthyridine]-9′-carboxylic acid] | 10 to 100 | – | > 4000 |
| Cc1cc2c(nc1C)CC(C(C)C)n1cc(C(=O)O)c(=O)cc1-2 (centres unmarked) [Example 33, 6-Isopropyl-2,3-dimethyl-10-oxo-5,10-dihydro-6H-pyrido[2,1-f][1,6]naphthyridine-9-carboxylic acid] | > 100 | – | > 4000 |
